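Where inhibition never reached the appropriate level, the endpoint shown equals the highest concentration tested. Otherwise, values were interpolated linearly from a five-concentration, 48-hour dose response in 96-well plates. The concentration for full growth arrest is given as TGI.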
Assays:
Assay in all cases: NCI tumour cell line growth inhibition, 48 h
[1] = test system: PC-3 prostate
[2] = test system: 786-0 renal
[3] = test system: A549 NSCLC
[4] = test system: ACHN renal
[5] = test system: IGROV1 ovarian
[6] = test system: SNB-19 CNS
[7] = test system: NCI-H522 lung
[8] = test system: U251 CNS
[9] = test system: HOP-92 NSCLC
[10] = test system: T-47D breast
[11] = test system: UACC-62 melanoma
[12] = test system: COLO 205 colon
[13] = test system: MDA-MB-231 breast
[14] = test system: DU-145 prostate
[15] = test system: SK-MEL-2 melanoma
[16] = test system: BT-549 breast
[17] = test system: SK-MEL-5 melanoma
[18] = test system: UACC-257 melanoma
[19] = test system: K-562 leukemia
[20] = test system: CAKI-1 renal
[21] = test system: MALME-3M melanoma
[22] = test system: EKVX NSCLC
[23] = test system: SR leukemia
[24] = test system: SK-MEL-28 melanoma
[25] = test system: UO-31 renal
[26] = test system: HS 578T breast
[27] = test system: CCRF-CEM leukemia
[28] = test system: SF-268 CNS
[29] = test system: NCI/ADR-RES ovarian
[30] = test system: TK-10 renal
[31] = test system: SN12C renal
[32] = test system: HCT-15 colon
[33] = test system: A498 renal
[34] = test system: SK-OV-3 ovarian
[35] = test system: NCI-H226 lung
[36] = test system: MOLT-4 leukemia
[37] = test system: HCC-2998 colon
[38] = test system: SNB-75 CNS
[39] = test system: MDA-N
[40] = test system: HCT-116 colon
[41] = test system: LOX IMVI melanoma
[42] = test system: HL-60(TB) leukemia
[43] = test system: MCF7 breast
[44] = test system: OVCAR-5 ovarian
[45] = test system: SW-620 colon
[46] = test system: M14 melanoma
[47] = test system: SF-539 CNS
[48] = test system: OVCAR-4 ovarian
[49] = test system: HT29 colon
[50] = test system: MDA-MB-435
[51] = test system: OVCAR-3 ovarian
[52] = test system: RPMI-8226 leukemia
[53] = test system: HOP-62 NSCLC
[54] = test system: OVCAR-8 ovarian
[55] = test system: RXF 393 renal
[56] = test system: KM12 colon
[57] = test system: SF-295 CNS
[58] = test system: NCI-H23 lung
[59] = test system: NCI-H460 lung

Measured: TGI

COc1ccc(C(C#N)NCCCCCCNC(C#N)c2ccc(OC)cc2)cc1 (configuration not stated)
not listed: [59]
> 100 µM: all other assays above

CCOP(=O)(OCC)/C(C#N)=C/c1cccn1N(C)C
96.3 µM: [10]
> 100 µM: all other assays above

— PubChem BioAssay (NCI)
